Target: T1, hERG channel (Homo sapiens, UniProt Q12809)
T1 construct: expressed in transfected cells; host or cells: CHO (Chinese hamster ovary)
Assay: hERG channel inhibition assay (patch-clamp, CHO hERG cells)
Assay type: cell-based
Conditions: for IC50 / IC20: CHO hERG cells, whole-cell patch-clamp; for IC20: human, CHO cells stably expressing hERG; for hERG IC20 / TLR8 IC50 / hERG IC20 / TLR7 IC50 / hERG IC20 / TLR9 IC50: safety ratio; for hERG IC20 / TLR7 IC50: TLR7 IC50 of ER compounds from Table 1; for hERG IC20 / TLR9 IC50: TLR9 IC50 of ER compounds from Table 1
Description: The hERG K^+ channels were cloned in humans and stably expressed in a CHO (Chinese hamster ovary) cell line. CHOhERG cells were used for patch-clamp (voltage-clamp, whole-cell) experiments. Cells were stimulated by a voltage pattern to activate hERG channels and conduct IKhERG currents (rapid delayed outward rectifier potassium current of the hERG channel). After the cells were stabilized for a few minutes, the amplitude and kinetics of IKhERG were recorded at a stimulation frequency of 0.1 Hz (6 bpm). Thereafter, the test compound was added to the preparation at increasing concentrations. For each concentration, an attempt was made to reach a steady-state effect, usually, this was achieved within 3-10 min at which time the next highest concentration was applied. The amplitude and kinetics of IKhERG are recorded in each concentration of the drug which were compared to the control values (taken as 100%). (references: Redfern WS, Carlsson L, Davis AS, Lynch WG, MacKenzie I, Palethorpe S, Siegl PK, Strang I, Sullivan AT, Wallis R, Camm AJ, Hammond TG. 2003; Relationships between preclinical cardiac electrophysiology, clinical QT interval prolongation and torsade de pointes for a broad range of drugs: evidence for a provisional safety margin in drug development. Cardiovasc. Res. 58:32-45, Sanguinetti MC, Tristani-Firouzi M. 2006; hERG potassium channels and cardiac arrhythmia. Nature 440:463-469, Webster R, Leishman D, Walker D. 2002; Towards a drug concentration effect relationship for QT prolongation and torsades de pointes. Curr. Opin. Drug Discov. Devel. 5:116-26).
Table 3. hERG and safety ratio results

T1 sequence (Q12809 whole entry): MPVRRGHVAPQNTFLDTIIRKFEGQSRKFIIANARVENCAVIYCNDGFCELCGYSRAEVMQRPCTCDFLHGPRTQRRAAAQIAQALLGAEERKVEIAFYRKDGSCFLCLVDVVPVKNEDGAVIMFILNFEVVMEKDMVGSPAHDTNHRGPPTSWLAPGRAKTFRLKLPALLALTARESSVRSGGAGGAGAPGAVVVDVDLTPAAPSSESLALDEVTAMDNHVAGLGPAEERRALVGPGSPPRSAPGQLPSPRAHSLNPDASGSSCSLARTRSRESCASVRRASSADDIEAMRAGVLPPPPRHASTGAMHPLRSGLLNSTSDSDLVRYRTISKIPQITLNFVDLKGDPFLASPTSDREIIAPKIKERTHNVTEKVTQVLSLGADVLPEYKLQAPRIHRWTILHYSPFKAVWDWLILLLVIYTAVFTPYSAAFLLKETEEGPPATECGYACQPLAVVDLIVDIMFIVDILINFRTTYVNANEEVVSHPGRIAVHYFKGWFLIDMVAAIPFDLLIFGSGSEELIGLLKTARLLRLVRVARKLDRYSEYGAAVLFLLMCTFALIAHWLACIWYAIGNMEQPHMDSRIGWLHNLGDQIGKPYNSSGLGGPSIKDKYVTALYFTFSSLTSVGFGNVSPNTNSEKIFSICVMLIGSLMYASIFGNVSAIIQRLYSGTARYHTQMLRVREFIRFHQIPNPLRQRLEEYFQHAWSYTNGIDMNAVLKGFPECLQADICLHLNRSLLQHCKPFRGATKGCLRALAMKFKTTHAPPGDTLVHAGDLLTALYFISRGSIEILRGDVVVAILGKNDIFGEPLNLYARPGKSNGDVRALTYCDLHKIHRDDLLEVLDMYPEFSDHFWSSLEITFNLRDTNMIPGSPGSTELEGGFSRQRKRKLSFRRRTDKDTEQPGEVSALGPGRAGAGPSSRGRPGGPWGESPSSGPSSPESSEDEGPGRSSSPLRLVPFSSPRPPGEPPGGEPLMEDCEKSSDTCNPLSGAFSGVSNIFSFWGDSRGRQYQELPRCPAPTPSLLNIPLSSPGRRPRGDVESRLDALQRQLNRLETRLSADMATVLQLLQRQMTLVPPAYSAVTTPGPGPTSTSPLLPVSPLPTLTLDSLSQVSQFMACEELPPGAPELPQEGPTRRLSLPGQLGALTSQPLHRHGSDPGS

| Structure (SMILES) | IC50 | IC20 | hERG IC20 / TLR8 IC50 | hERG IC20 / TLR7 IC50 | hERG IC20 / TLR9 IC50 |
| --- | --- | --- | --- | --- | --- |
| C[C@@H]1Cc2cc(N3CCN(C[C@H]4CN(c5ccc(C#N)c6ncccc56)C[C@@H](C)O4)CC3)ncc2CN1 (single isomer, unassigned) [Example 70] | > 20 µM | > 10 µM | >2439.0 | >390.6 | >120.91 |
| C[C@@H]1CN(c2ccc(C#N)c3ncccc23)C[C@H](CN2CCN(c3cc4c(cn3)CCN[C@@H]4C)CC2)O1 (single isomer, unassigned) [Example 74] | > 20 µM | > 10 µM | >2857.1 | >1470.6 | >112.1 |
| C[C@@H]1CN(c2ccc(C#N)c3ncccc23)C[C@H](CN2CCN(c3cc4c(cn3)C[C@H](C)NC4)CC2)O1 (single isomer, unassigned) [Example 76] | > 20 µM | > 10 µM | >1960.8 | >714.3 | >102.7 |
| C[C@@H]1Cc2cnc(N3CCN(C[C@H]4CN(c5ccc(C#N)c6ncccc56)C[C@@H](C)O4)CC3)cc2CN1 (single isomer, unassigned) [Example 77] | > 20 µM | > 10 µM | >1515.2 | >885.0 | >86.9 |
| C[C@@H]1CN(c2ccc(C#N)c3ncccc23)C[C@H](CN2CCN(c3ccc4c(c3)CCNC4)CC2)O1 [Example 5, 5-[(2R,6S)-2-methyl-6-[[4-(1,2,3,4-tetrahydroisoquinolin-6-yl)piperazin-1-yl]methyl]morpholin-4-yl]quinoline-8-carbonitrile] | > 20 µM | > 10 µM | >497.5 | >320.5 | >156.0 |
| C[C@@H]1CN(c2ccc(C#N)c3ncccc23)C[C@H](CN2CCN(c3ccc4c(c3)CNC4)CC2)O1 [Example 7, 5-[(2S,6R)-2-[(4-isoindolin-5-ylpiperazin-1-yl)methyl]-6-methyl-morpholin-4-yl] quinoline-8-carbonitrile] | > 20 µM | 5.74 µM | 194.6 | 146.5 | 64.5 |
| C[C@@H]1CN(c2ccc(C#N)c3ncsc23)C[C@H](CN2CCN(c3cnc4c(c3)CNC4)CC2)O1 [Example 8, 7-[(2S,6R)-2-[[4-(6,7-dihydro-5H-pyrrolo[3,4-b]pyridin-3-yl)piperazin-1-yl]methyl]-6-methyl-morpholin-4-yl]-1,3-benzothiazole-4-carbonitrile] | > 20 µM | > 10 µM | >3333.3 | >1020.4 | >207.5 |
| C[C@@H]1CN(c2ccc(C#N)c3ncccc23)C[C@H](CN2CCN(c3ccc4c(n3)CCNC4)CC2)O1 [Example 14, 5-[(2R,6S)-2-methyl-6-[[4-(5,6,7,8-tetrahydro-1,6-naphthyridin-2-yl)piperazin-1-yl]methyl]morpholin-4-yl]quinoline-8-carbonitrile] | > 20 µM | 7.07 µM | 1725.4 | 673.7 | 122.8 |
| C[C@@H]1CN(c2ccc(C#N)c3ncccc23)C[C@H](CN2CCN(c3ccc4c(c3)CN(CCO)C4)CC2)O1 [Example 16, 5-[(2S,6R)-2-[[4-[2-(2-hydroxyethyl)isoindolin-5-yl]piperazin-1-yl]methyl]-6-methyl-morpholin-4-yl]quinoline-8-carbonitrile] | > 20 µM | > 10 µM | >1000.0 | >490.2 | >110.4 |

Source: patent publication EP3807270B1, “NOVEL HETEROARYL HETEROCYCLYL COMPOUNDS FOR THE TREATMENT OF AUTOIMMUNE DISEASE” (F. Hoffmann-La Roche AG, priority 2018, dated 2019)
